Laboratory results taken from patent publication US20250113824A1, “WEED CONTROL METHOD” (SUMITOMO CHEMICAL COMPANY, LIMITED, priority 2018, published 2025).

Key:
[1] = test system: glyphosate-resistant weeds and volunteer glyphosate-tolerant soybean and cotton; assay: Foliar treatment pot test in greenhouse (Example 2); format: in vivo; details: foliar application after 21 days cultivation; 6.25, 125, 25, 50, 100 or 150 g/ha; 200 L/ha; fourteen days after treatment
Procedure: (§1) In a plastic pot are seeded glyphosate-resistant Amaranthus palmeri in which the number of copies of EPSPS gene has been increased, glyphosate-resistant waterhemp in which the number of copies of EPSPS gene has been increased, glyphosate-resistant kochia in which the number of copies of EPSPS gene has been increased, marestail which is resistant to glyphosate by involving an ABC transporter, Guernsey fleabane which is resistant to glyphosate by involving an ABC transporter, fleabane which is resistant to glyphosate by involving an ABC transporter, glyphosate-resistant goosegrass having Thr102Ile, glyphosate-resistant goosegrass having Pro106Ser, glyphosate-resistant goosegrass having Pro106Ala, glyphosate-resistant goosegrass having Pro106Leu, glyphosate-resistant goosegrass having Thr102Ile and Pro106Ser, glyphosate-resistant darnel having Thr102Ile, glyphosate-resistant darnel having Pro106Ser, glyphosate-resistant darnel having Pro106Ala, glyphosate-resistant darnel having Pro106Leu, volunteer glyphosate-tolerant soybean, and volunteer glyphosate-tolerant cotton. The plants are cultivated in a greenhouse for 21 days, and then the present compound is applied to foliage of the plants at application rate of 6.25, 125, 25, 50, 100 or 150 g/ha. The amount of a liquid sprayed is 200 L/ha. Subsequently, the plants are cultivated in a greenhouse.

[2] = test system: glyphosate-resistant weeds and volunteer glyphosate-tolerant soybean and cotton; assay: Soil treatment pot test in greenhouse (Example 1); format: in vivo; details: soil treated on day of seeding; 6.25, 12.5, 25, 50, 100 or 150 g/ha; 200 L/ha; twenty-eight days after treatment
Procedure: as §1, with “On the same day, the soil is treated with” for “The plants are cultivated in a greenhouse for 21 days, and then”, “at” for “is applied to foliage of”, “the” for “the plants at”, “12.5,” for “125,”

CCOC(=O)COc1ncccc1Oc1cc(-n2c(=O)cc(C(F)(F)F)n(C)c2=O)c(F)cc1Cl [present compound, ethyl [3-[2-chloro-4-fluoro-5-(1-methyl-6-trifluoromethyl-2,4-dioxo-1,2,3,4-tetrahydropyrimidin-3-yl)phenoxy]-2-pyridyloxy]acetate]
effect against the weeds [1]: significant effect | effect against the weeds [2]: significant effect
